Laboratory results from patent publication US20030153512A1 (priority 2000, published 2003).
Converted amounts (≈) assume the structure as drawn.

Experiments:
[1] = Water solubility of saturated solutions in argon-saturated water, content by HPLC; type: physicochemical; details: saturated solution at room temperature in argon-saturated water, HPLC UV 420 nm
Protocol: HPLC conditions: column lichrospher-100-RP18-5 μ, 125×4 mm Running agent/gradient/flow Acetonitrile/acetic acid 0.2 and/or 2%, 1 ml/min Detection: UV 420 nm
The relevant straight calibration line was respectively determined with the individual compounds. […] The content of 20 μl each of the saturated solutions was determined by means of HPLC.

Epstein-Barr virus = assay: Inhibition of EBV induction (reactivation) in Raji-DR-LUC cells, luciferase activity; type: cell-based; details: 50,000 Raji-DR cells, 10 nM TPA, 72 hours
Protocol: The current studies were carried out with Raji-DR-LUC cells.
For this purpose, 50,000 Raji-DR cells were treated with 10 nM TPA minus/plus inhibitor (various concentrations) in a volume of 100 μl in a CO2 incubator for 72 hours. Following washing with PBS, the cells are lyzed; the luciferase activity is determined in luciferase buffer (20 mM tricins, 8 mM MgSO4, 0.1 mM EDTA, 30 mM DTE, pH 7.8) with luciferin/CoA ATP as a substrate in an always equal amount of cell lyzate. The induced luciferase activity per μg protein is determined in comparison with a calibration curve having an authentic luciferase. Inhibiting agents of EBV induction result in an induction of luciferase reduced as compared with the TPA control.

Raji cells = assay: Uptake in Raji cells by fluorescence microscopy; type: cell-based
Protocol: These studies were carried out by means of fluorescence microscopy, since curcumin and its two derivatives show fluorescence. […] Aliquots of the cells in medium were placed by pipetting onto poly-L-lysin-coated slides (to adhere the cells); the cells were covered with a cover glass after 30 minutes and stimulated by an appropriate filter using U.V. light.

[2] = test system: granulocytes (PMN) from human blood; assay: Inhibition of the TPA-stimulated "oxygen burst" of granulocytes (chemiluminescence); type: cell-based; details: 100,000 granulocytes, TPA 100 nM, luminol and/or lucigenin, CL integral over one hour
Protocol: These studies were carried out by means of the inhibition of the “oxygen burst” of granulocytes (PMN) from human blood according to Hergenhahn et al. (1991) J. Cancer Res. Clin. Oncol. 117, 385-395, and Bouvier, Hergenhahn et al. (1993) Carcinogenesis 14, 1573-8. The granulocyte fraction from heparinized blood is enriched by agglutination of the erythrocytes with 2.5% dextran in PBS (30 min. at room temperature), freed from residual erythrocytes by lysis and used after washing with PBS in the test. In a total volume of 1 ml, 100,000 granulocytes each are admixed with luminol and/or lucigenin and heated to 37° C. in the chemiluminescence (CL) measuring device Biolumat LB 953 (EG&G Berthold, Wildbad); the cells are then stimulated with TPA at a final concentration of 100 nM. The CL curves are tracked for one hour; the integral underneath the curve is used as a standard for chemiluminescence.
When inhibitory substances are used, a concentration-dependent inhibitory effect results which manifests itself as a late rise, reduced amplitude of the maximum and partially as an early drop of the peak.

cell cultures = details: described in the literature; cited from earlier work
[3] = Raji cells, 3 hours, 15 μM, image analysis

Compound	water solubility [1] [µg/mL]	EBV inhibitory effect, rank order in series (Epstein-Barr virus)	fluorescence of cells (cell-associated compound) (Raji cells; [3])	antioxidative effect, rank order in series [2]	factor by which cell fluorescence was reduced (versus curcumin) (Raji cells; [3])	solubility ([1]; thermodynamic from solid) [µg/mL]	concentration in the medium at which chemopreventive effects occurred (cell cultures)	time of maximum uptake in Raji cells (Raji cells; preliminary tests) [h]
8,8′-bis-(B-D-glucopyranosyl)-curcumin [Curcumin diglucoside]	> 10700	curcumin>curcumin monoglucoside>curcumin diglucoside	just visible	curcumin >>curcumin monoglucoside curcumin diglucoside				
8-(β-D-glucopyranosyl)curcumin [Curcumin monoglucoside]	13.2 ± 0.9	curcumin>curcumin monoglucoside>curcumin diglucoside		curcumin >>curcumin monoglucoside curcumin diglucoside	10-100			
COc1cc(C=CC(=O)CC(=O)C=Cc2ccc(O)c(OC)c2)ccc1O [Curcumin, 1,7-bis(4-hydroxy-3-methoxyphenyl)-1,6-heptadiene-3,5-dione, reference compound]		curcumin>curcumin monoglucoside>curcumin diglucoside	very bright fluorescence	curcumin >>curcumin monoglucoside curcumin diglucoside		4 (≈ 10.9 µM)	at least 10 μM	2 to 3
